This note sets out measurements from US8461328B2, “Tricyclic heterocyclic compounds, compositions and methods of use thereof” (Genentech, Inc., priority 2010, dated 2013).

A word on the Ki: it is the equilibrium dissociation constant of an inhibitor or competing ligand from its target.

What all share (format): biochemical
In one test the target is T1, JAK1 (Homo sapiens, UniProt P23458).
T1 construct: made in house; host or cells: SF9 insect cells (baculovirus)
Put plainly: JAK1 inhibition (Table 4).

Another test concerns the target T2, JAK2 (Homo sapiens, UniProt O60674).
T2 construct: made in house; host or cells: SF9 insect cells (baculovirus)
Nature of the test: JAK2 inhibition (Table 4). The following applies: read-out: JAK2 Ki.

For another test, the target named is T3, JAK3 (Homo sapiens, UniProt P52333).
T3 construct: made in house; host or cells: SF9 insect cells (baculovirus)
Put plainly: JAK3 inhibition (Table 4).

The target in the next test is T4, TYK2 (Homo sapiens, UniProt P29597).
T4 construct: made in house; host or cells: SF9 insect cells (baculovirus)
T4 sequence (P29597 873-1187): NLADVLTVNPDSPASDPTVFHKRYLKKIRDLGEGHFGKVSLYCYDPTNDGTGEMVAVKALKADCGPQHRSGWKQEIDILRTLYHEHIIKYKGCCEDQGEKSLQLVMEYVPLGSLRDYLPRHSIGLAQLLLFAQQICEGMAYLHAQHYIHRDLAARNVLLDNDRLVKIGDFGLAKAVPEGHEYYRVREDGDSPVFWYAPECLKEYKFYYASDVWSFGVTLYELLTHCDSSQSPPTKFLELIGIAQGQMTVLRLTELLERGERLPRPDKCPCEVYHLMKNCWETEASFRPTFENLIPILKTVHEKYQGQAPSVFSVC
Nature of the test: TYK2 inhibition (Table 4).

The structures appear in SMILES notation. Read-outs that look alike come from different tables or passages of the source.

T2 sequence (O60674 812-1132): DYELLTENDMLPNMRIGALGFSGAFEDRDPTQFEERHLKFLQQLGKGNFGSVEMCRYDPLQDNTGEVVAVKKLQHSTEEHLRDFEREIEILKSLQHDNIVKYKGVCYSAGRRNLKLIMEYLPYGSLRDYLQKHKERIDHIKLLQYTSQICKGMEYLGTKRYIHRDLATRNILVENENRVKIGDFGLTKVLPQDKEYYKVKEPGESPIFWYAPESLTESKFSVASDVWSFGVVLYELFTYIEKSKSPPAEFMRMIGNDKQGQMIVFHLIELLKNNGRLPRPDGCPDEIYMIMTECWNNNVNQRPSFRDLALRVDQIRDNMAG
T1 sequence (P23458 852-1154): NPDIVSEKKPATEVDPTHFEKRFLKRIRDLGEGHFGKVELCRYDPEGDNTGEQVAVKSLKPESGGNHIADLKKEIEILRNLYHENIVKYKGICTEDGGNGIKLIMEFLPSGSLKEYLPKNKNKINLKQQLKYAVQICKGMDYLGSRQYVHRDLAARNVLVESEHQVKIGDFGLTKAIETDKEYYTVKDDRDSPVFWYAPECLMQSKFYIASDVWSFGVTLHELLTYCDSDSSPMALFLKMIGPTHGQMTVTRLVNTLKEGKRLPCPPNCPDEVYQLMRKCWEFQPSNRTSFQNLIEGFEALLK
T3 sequence (P52333 783-1124): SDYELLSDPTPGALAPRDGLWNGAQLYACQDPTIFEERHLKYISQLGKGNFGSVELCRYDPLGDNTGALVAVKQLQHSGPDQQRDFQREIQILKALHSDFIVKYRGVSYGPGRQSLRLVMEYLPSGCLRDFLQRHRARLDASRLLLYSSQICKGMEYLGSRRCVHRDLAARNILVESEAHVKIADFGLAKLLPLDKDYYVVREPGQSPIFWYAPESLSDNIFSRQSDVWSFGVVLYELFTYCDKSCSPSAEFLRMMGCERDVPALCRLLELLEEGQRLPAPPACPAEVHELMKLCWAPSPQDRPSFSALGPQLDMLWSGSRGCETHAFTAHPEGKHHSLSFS

Regarding `C[C@@H](O)c1nc2cnc3[nH]ccc3c2n1[C@H]1CC[C@H](N(C)CCC#N)CC1` [Example 616, Trans 3-({4-[2-((R)-1-hydroxy-ethyl)-6H-1,2,3,5,6-tetraaza-as-indacen-1-yl]-cyclohexyl}-methyl-amino)-propionitrile], the Ki at JAK1 (read-out: JAK1 Ki) was 4.49 nM; at JAK2, 20 nM; on JAK3 (read-out: JAK3 Ki) it was 84.3 nM; on TYK2, 12.1 nM.

Take `C[C@@H](O)c1nc2cnc3[nH]ccc3c2n1[C@H]1CC[C@H](N(C)CC(F)(F)F)CC1` [Example 617, Trans (R)-1-(1-{4-[methyl-(2,2,2-trifluoro-ethyl)-amino]-cyclohexyl}-1,6-dihydro-1,2,3,5,6-tetraaza-as-indacen-2-yl)-ethanol]: the Ki is 11.9 nM at JAK1 (read-out: JAK1 Ki), 38.7 nM at JAK2, 147 nM on JAK3 (read-out: JAK3 Ki) and 22.3 nM on TYK2.

As to `Cc1nc2cnc3[nH]ccc3c2n1[C@@H]1CC[C@@H](NC(=O)OC(C)(C)C)C1` [Example 623, [(1R,3R)-3-(2-Methyl-6H-1,2,3,5,6-tetraaza-as-indacen-1-yl)-cyclopentyl]-carbamic acid tert-butyl ester], the inhibitory constant (Ki) at JAK1 (read-out: JAK1 Ki) came out at 0.98 nM; on JAK2, 8.69 nM; on JAK3 (read-out: JAK3 Ki), 42.7 nM; at TYK2, 118 nM.

Consider `Cc1nc2cnc3[nH]ccc3c2n1[C@@H]1CC[C@@H](NC(=O)CC(F)(F)F)C1` [Example 624, 3,3,3-Trifluoro-N-[(1R,3R)-3-(2-methyl-6H-1,2,3,5,6-tetraaza-as-indacen-1-yl)-cyclopentyl]-propionamide], for which the Ki on JAK1 (read-out: JAK1 Ki) came out at 2.23 nM; on JAK2, 10.2 nM; at JAK3 (read-out: JAK3 Ki), 13.9 nM; on TYK2, 63 nM.

As to `Cc1nc2cnc3[nH]ccc3c2n1[C@@H]1CC[C@@H](NC2COC2)C1` [Example 625, [(1R,3R)-3-(2-Methyl-6H-1,2,3,5,6-tetraaza-as-indacen-1-yl)-cyclopentyl]-oxetan-3-yl-amine], the Ki on JAK1 (read-out: JAK1 Ki) is 33.9 nM; on JAK2, 99.7 nM; on JAK3 (read-out: JAK3 Ki), 169 nM; on TYK2, 218 nM.

On to `OC[C@H]1CC[C@H](n2cnc3cnc4[nH]ccc4c32)CC1` [Example 631, trans [4-(6H-1,2,3,5,6-Tetraaza-as-indacen-1-yl)-cyclohexyl]-methanol], for which the inhibition constant (Ki) at JAK1 (read-out: JAK1 Ki) came out at 0.85 nM; on JAK2, 2.57 nM; on JAK3 (read-out: JAK3 Ki), 19.3 nM; at TYK2, 6.79 nM.

As to `Cc1nc2cnc3[nH]ccc3c2n1[C@H]1CC[C@H](CO)CC1` [Example 633, Trans[4-(2-methyl-6H-1,2,3,5,6-tetraaza-as-indacen-1-yl)-cyclohexyl]-methanol], the Ki at JAK1 (read-out: JAK1 Ki) turned out to be 1.19 nM; at JAK2, 3.31 nM; at JAK3 (read-out: JAK3 Ki), 12.1 nM; on TYK2, 6.08 nM.

For the compound `CO[C@H]1CC[C@H](n2c(CO)nc3cnc4[nH]ccc4c32)CC1` [Example 634, Trans[1-(4-Methoxy-cyclohexyl)-1,6-dihydro-1,2,3,5,6-tetraaza-as-indacen-2-yl]-methanol], the Ki worked out at 3.8 nM at JAK1 (read-out: JAK1 Ki), 21.9 nM at JAK2, 165 nM at JAK3 (read-out: JAK3 Ki) and 4.4 nM at TYK2.

Take `COC[C@H]1CC[C@H](n2c(CO)nc3cnc4[nH]ccc4c32)CC1` [Example 636, Trans[1-(4-methoxymethyl-cyclohexyl)-1,6-dihydro-1,2,3,5,6-tetraaza-as-indacen-2-yl]-methanol]: the Ki came to 3.82 nM at JAK1 (read-out: JAK1 Ki), 15.6 nM at JAK2, 28 nM at JAK3 (read-out: JAK3 Ki) and 6.5 nM on TYK2.

As for `COC[C@H]1CC[C@H](n2c([C@@H](C)O)nc3cnc4[nH]ccc4c32)CC1` [Example 637, Trans (R)-1-[1-(4-methoxymethyl-cyclohexyl)-1,6-dihydro-1,2,3,5,6-tetraaza-as-indacen-2-yl]-ethanol], the inhibitory constant (Ki) on JAK1 (read-out: JAK1 Ki) came out at 1.89 nM; on JAK2 it was 35.6 nM; on JAK3 (read-out: JAK3 Ki) it was 37 nM; at TYK2, 7.42 nM.

With `C[C@@H](O)c1nc2cnc3[nH]ccc3c2n1[C@H]1CC[C@H](OCC#N)CC1` [Example 639, Trans {4-[2-((R)-1-hydroxy-ethyl)-6H-1,2,3,5,6-tetraaza-as-indacen-1-yl]-cyclohexyloxy}-acetonitrile], the Ki was 0.78 nM on JAK1 (read-out: JAK1 Ki), 14.4 nM on JAK2, 58.1 nM at JAK3 (read-out: JAK3 Ki) and 4.04 nM at TYK2.

Consider `N#C[C@H]1CC[C@H](n2cnc3cnc4[nH]ccc4c32)CC1` [Example 640, trans 4-(6H-1,2,3,5,6-Tetraaza-as-indacen-1-yl)-cyclohexanecarbonitrile], for which the inhibitory constant (Ki) on JAK1 (read-out: JAK1 Ki) came out at 3.93 nM; at JAK2 it was 9.66 nM; at JAK3 (read-out: JAK3 Ki) it was 82.7 nM; at TYK2, 25.1 nM.

Regarding `C[C@@H](O)c1nc2cnc3[nH]ccc3c2n1[C@H]1CC[C@H](C#N)CC1` [Example 641, trans 4-[2-((R)-1-Hydroxy-ethyl)-6H-1,2,3,5,6-tetraaza-as-indacen-1-yl]-cyclohexanecarbonitrile], the inhibitory constant (Ki) is 1.87 nM at JAK1 (read-out: JAK1 Ki), 66.5 nM at JAK2, 254 nM at JAK3 (read-out: JAK3 Ki) and 12.4 nM on TYK2.

With `N#C[C@H]1CC[C@H](n2c(CO)nc3cnc4[nH]ccc4c32)CC1` [Example 642, Trans 4-(2-hydroxymethyl-6H-1,2,3,5,6-tetraaza-as-indacen-1-yl)cyclohexane carbonitrile], the Ki at JAK1 (read-out: JAK1 Ki) was 2.06 nM; at JAK2 it was 20.9 nM; on JAK3 (read-out: JAK3 Ki), 185 nM; at TYK2 it was 7.22 nM.

Consider `C[C@@H](O)c1nc2cnc3[nH]ccc3c2n1[C@H]1CC[C@H](CC#N)CC1` [Example 644, Trans {4-[2-((R)-1-Hydroxy-ethyl)-6H-1,2,3,5,6-tetraaza-as-indacen-1-yl]-cyclohexyl}-acetonitrile], for which the Ki was 0.12 nM at JAK1 (read-out: JAK1 Ki), 0.81 nM on JAK2, 5.31 nM on JAK3 (read-out: JAK3 Ki) and 0.36 nM on TYK2.

For `N#CC[C@H]1CC[C@H](n2c(CO)nc3cnc4[nH]ccc4c32)CC1` [Example 645, Trans[4-(2-hydroxymethyl-6H-1,2,3,5,6-tetraaza-as-indacen-1-yl)-cyclohexyl]-acetonitrile], the inhibition constant (Ki) is 0.13 nM on JAK1 (JAK1 Ki), 0.39 nM at JAK2, 3.56 nM on JAK3 (JAK3 Ki) and 0.25 nM on TYK2.

Consider `N#CCC[C@H]1CC[C@H](n2c(CO)nc3cnc4[nH]ccc4c32)CC1` [Example 646, 3-[4-(2-hydroxymethyl-6H-1,2,3,5,6-tetraaza-as-indacen-1-yl)-cyclohexyl]-propionitrile], for which the inhibition constant (Ki) was 0.53 nM at JAK1 (read-out: JAK1 Ki), 2.05 nM at JAK2, 9.11 nM on JAK3 (read-out: JAK3 Ki) and 1.49 nM on TYK2.

`C[C@@H](O)c1nc2cnc3[nH]ccc3c2n1[C@H]1CC[C@H](S(C)(=O)=O)CC1` [Example 650, Trans (R)-1-[1-(4-methanesulfonyl-cyclohexyl)-1,6-dihydro-1,2,3,5,6-tetraaza-as-indacen-2-yl]-ethanol]: the inhibition constant (Ki) was 10.5 nM at JAK1 (read-out: JAK1 Ki), 113 nM on JAK2, 756 nM at JAK3 (read-out: JAK3 Ki) and 52 nM on TYK2.

As to `CS(=O)(=O)[C@H]1CC[C@H](n2c(CO)nc3cnc4[nH]ccc4c32)CC1` [Example 651, Trans[1-(4-Methanesulfonyl-cyclohexyl)-1,6-dihydro-1,2,3,5,6-tetraaza-as-indacen-2-yl]-methanol], the inhibition constant Ki was 9.87 nM on JAK1 (read-out: JAK1 Ki), 42.5 nM on JAK2, 430 nM at JAK3 (read-out: JAK3 Ki) and 34.8 nM at TYK2.

As to `CS(=O)(=O)CC[C@H]1CC[C@H](n2c(CO)nc3cnc4[nH]ccc4c32)CC1` [Example 652, Trans {1-[4-(2-methanesulfonyl-ethyl)-cyclohexyl]-1,6-dihydro-1,2,3,5,6-tetraaza-as-indacen-2-yl}-methanol], the Ki on JAK1 (read-out: JAK1 Ki) came to 0.81 nM; on JAK2, 4.38 nM; at JAK3 (read-out: JAK3 Ki), 39 nM; at TYK2, 3.7 nM.

Take `C[C@@H](O)c1nc2cnc3[nH]ccc3c2n1[C@H]1CC[C@@H](n2cncn2)CC1` [Example 653, Cis (R)-1-[1-(4-[1,2,4]triazol-1-yl-cyclohexyl)-1,6-dihydro-1,2,3,5,6-tetraaza-as-indacen-2-yl]-ethanol]: the Ki came to 0.88 nM at JAK1 (read-out: JAK1 Ki), 24.7 nM at JAK2, 1.31 nM on JAK3 (read-out: JAK3 Ki) and 5.28 nM on TYK2.

Regarding `COc1nc2cnc3[nH]ccc3c2n1C1CCN(CCC#N)CC1` [Example 655, 3-[4-(2-Methoxy-6H-1,2,3,5,6-tetraaza-as-indacen-1-yl)-piperidin-1-yl]-propionitrile], the Ki on JAK1 (read-out: JAK1 Ki) worked out at 0.46 nM; on JAK2, 1.08 nM; on JAK3 (read-out: JAK3 Ki) it was 15.9 nM; on TYK2 it was 4.67 nM.

In the case of `CN(C)c1nc2cnc3[nH]ccc3c2n1C1CCN(CCC#N)CC1` [Example 656, 3-[4-(2-Dimethylamino-6H-1,2,3,5,6-tetraaza-as-indacen-1-yl)-piperidin-1-yl]-propionitrile], the Ki turned out to be 14.6 nM at JAK1 (read-out: JAK1 Ki), 77 nM on JAK2, 37.7 nM on JAK3 (read-out: JAK3 Ki) and 420 nM on TYK2.

Consider `CNc1nc2cnc3[nH]ccc3c2n1C1CCN(CC(F)(F)F)CC1` [Example 658, Methyl-{1-[1-(2,2,2-trifluoro-ethyl)-piperidin-4-yl]-1,6-dihydro-1,2,3,5,6-tetraaza-as-indacen-2-yl}-amine], for which the Ki was 3.51 nM at JAK1 (read-out: JAK1 Ki), 13.6 nM at JAK2, 34.2 nM on JAK3 (read-out: JAK3 Ki) and 67.4 nM at TYK2.
